{"source": "patent US20180045715A1", "about": "“STRUCTURE AND FUNCTION OF THE SALICYCLIC ACID BINDING SITES ON HUMAN HMGB1 AND METHODS OF USE THEREOF FOR THE RATIONAL DESIGN OF BOTH SALICYCLIC ACID DERIVATIVES AND OTHER AGENTS THAT ALTER ANIMAL AND PLANT HMGBS ACTIVITIES” (Boyce Thompson Institute for Plant Research, Inc., priority 2015, published 2018)", "assay_type_in_all_cases": "cell-based", "key": {"HMGB1^RE [1]": {"target": "T1, HMGB1^RE (Homo sapiens, UniProt P09429)", "T1 construct": "(i) full length: residues 2-215; 6x His (cleaved yes); made in house; host or cells: Escherichia coli BL21", "T1 sequence (P09429 2-215)": "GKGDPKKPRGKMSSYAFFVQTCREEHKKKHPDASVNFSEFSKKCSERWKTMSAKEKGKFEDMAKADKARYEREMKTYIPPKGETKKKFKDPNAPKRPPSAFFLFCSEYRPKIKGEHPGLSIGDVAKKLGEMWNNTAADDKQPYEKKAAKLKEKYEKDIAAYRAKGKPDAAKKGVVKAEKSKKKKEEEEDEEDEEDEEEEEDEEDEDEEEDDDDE", "assay": "Chemotaxis assay (Boyden chambers): HMGB1^RE-elicited migration of mouse 3T3 fibroblasts", "procedure": "(§1) Cell migration was assayed using Boyden chambers (Venereau et al., 2012). The downside of PVP-free polycarbonate filters (8 μm pores; Millipore) was coated with 50 μg/ml fibronectin (Sigma). Serum-free DMEM (negative control), DMEM containing 0.1 nM fMLP (positive control; Sigma), or DMEM containing 1 nM HMGB1^RE or HMGB1^SS were placed in the lower chamber, together with different concentrations of SA (Sigma). The mouse 3T3 fibroblast cells were cultured in DMEM media supplemented with 10% CS until 90% confluence, washed twice with PBS to eliminate any floating cells, and harvested with trypsin. 50,000 cells in 200 μL were added to the upper chamber, and cells were left to migrate for 3 h at 37° C. Non-migrating cells were removed with a cotton swab, and migrated cells were fixed with ethanol and stained with Giemsa.\n(§2) HMGB1^RE acts as a chemo-attractant that mediates migration of several cell types, including monocytes, fibroblasts, mesoangioblasts, smooth muscle cells, and colon cancer cells (Venereau et al., 2012). To determine whether SA alters HMGB 1's chemo-attractant activity, a chemotaxis assay was performed with mouse 3T3 fibroblasts."}, "HMGB1^RE [2]": {"test_system": "HMGB1^RE", "assay": "Chemotaxis assay (Boyden chambers): HMGB1^RE-elicited migration of mouse 3T3 fibroblasts", "details": "chemo-attractant and cytokine-inducing activities vs literature COX-2 inhibition", "procedure": "as §1, §2"}, "HMGB1^SS": {"target": "T2, HMGB1^SS (Homo sapiens, UniProt P09429)", "T2 construct": "(i) full length: residues 2-215; 6x His (cleaved yes); made in house; host or cells: Escherichia coli BL21", "T2 sequence (P09429 2-215)": "T1 sequence (P09429 2-215)", "assay": "HMGB1^SS-induced cytokine and COX-2 gene expression in human macrophages (qPCR)", "details": "3 h, 100 μM SA or 1 μM ac3AESA", "procedure": "Human HeLa cells were grown in T75 flasks in DMEM medium supplemented with penicillin (10,000 IU/mL) streptomycin ([…]), and 10% fetal calf serum. Ptgs2−/− MEFs were derived from Ptgs2−/− E16 mouse embryos, obtained from the mating of Ptgs2+/− mice purchased from Taconic Biosciences. PBMCs were isolated from buffy coats of donor blood (Hospital of Magenta, Milan, Italy) by Ficoll gradient centrifugation (Lymphoprep; AXIS-SHIELD. CD14+ monocytes were isolated by positive immunoselection (CD14 Microbeads; Miltenyi Biotec) according to the manufacturer's instructions, and differentiated into macrophages using X-Vivo medium supplemented with 1% heat inactivated human serum, GM-CSF, and M-CSF.\nMacrophages were exposed to 3 μg/ml HMGB1^SS or 50 ng/ml LPS. Total RNAs were isolated using the Illustra RNAspin Mini kit (GE Healthcare), and complementary DNA (cDNA) was obtained by retro-transcription with oligo(dT) primers (Invitrogen, Carlsbad, Calif., USA) and SuperScript II Reverse Transcriptase (Invitrogen) following the manufacturers' instructions. Quantitative real-time PCR was performed using a LightCycler480 (Roche Molecular Diagnostics), in duplicates, using SYBR Green I master mix and the oligonucleotides listed in Table of primers below. The ΔCt method was used for quantification, and the β-actin gene was used for normalization."}}, "note": "“Also recorded” adds a separate entry of the source. Where two headings read alike, the source gives them in different places."}
{"compound": "O=C(O)c1ccccc1O", "note": "[SA, salicylic acid]", "values": [{"measurement": "IC50", "setting": "HMGB1^RE [1]; mouse 3T3 fibroblasts, 1 nM HMGB1^RE, read-out: IC50, inhibition of HMGB1^RE-elicited migration of fibroblasts", "value": "3 to 4", "unit": "µM"}, {"measurement": "IC50", "setting": "HMGB1^RE [1]; read-out: IC50, inhibition of HMGB1^RE-induced chemotaxis", "value": "3.26 to 4.34", "unit": "µM"}, {"measurement": "concentration inhibiting HMGB1 bioactivities, fold below that required to inhibit COX-2's enzyme activity", "setting": "HMGB1^RE [2]", "value": "10-50 fold"}, {"measurement": "suppression of cytokine (IL-6, TNFα) and COX-2 expression induced by HMGB1^SS", "setting": "HMGB1^SS", "value": "partially or completely suppressed; also recorded: partially suppressed"}]}
